Assays:
HUVEC cell = experiment: Cell Proliferation Inhibition VEGF-R2 Assay (SRB method); assay type: cell-based, homo sapient; details: Homo sapiens; HUVEC cells, 72 hours exposure, Sulforhodamine B; read-out: IC50 (VEGFR/HUVEC)
Source text: The following in vitro assay may be used to determine the level of activity and effect of different compounds of the present invention on the proliferation inhibition (cell toxic) of endothelium growth factor receptor (VEGFR) high expressing homo […] cancer cell-HUVEC cell. The cellular assay described here measure the compounds of their anti-angiogenesis and proliferation inhibition activity and effect through […] on the cancer cells in vitro. The effect and activity is represented by the IC50 value that kills the cancer cell. […] The homo […] highly express […] are chosen and seeded to 96-well cell culture plate at a suitable concentration (exp 5000 cells/ml medium). The cells then are cultured in carbon dioxide (CO2) incubator till when they confluence to about 85%. Then, the cell culture medium is replaced by fresh one with tested compounds added in it at serial concentrations (general 6 to 7 concentrations). Then the cells are put back to the culture and cultured for continuous 72 hours. 72 hours later, the cell exposed to compounds and control cell are assayed for their proliferation using Sulforhodamine B (SRB) method. […] Dimethyl sulfoxide (Sinophma chemical reagent company, catalog No. T20050806) • b. HUVEC cells (Purchased from Institute of biochemistry and cell biology) • c. […] Acetic Acid (Sinophma chemical reagent company, Catalog No. T20060508) • l. Trichloroacetic Acid (Sinophma chemical reagent company, Catalog No. T20060305) • m. […] Class II A/B3 Biological safety cabinet (ThermoForma Catalog No. HB0053-03) • o. […] Centrifuge (Fisher Scientific Marathon 8 k, Catalog No. 0027-02) • q. Novastar Plate reader (BMG Labtech, Catalog No. 700-0081) • r. […] Growing seeded 96-well plates at 37° C., 5% CO2, till 85% confluence. • 4. Prepare compounds stock solution, using DMSO solve candidate compounds to a concentration of 20 mM. […] Use cell culture medium (in this case, DMEM/F12+10% FBS) to dilute the compounds solution prepared above. Each DMSO serial concentration compound solution is diluted by 20 times with culture medium by adding 5 μl DMSO compound solution to 95 μl culture medium, then mix well by vortex. […] After HUVEC cell has attached to the dish bottom and confluence about 85%, change the culture medium with fresh DMEM/F12 plus 10% FBS. Each well added 180 μl medium, then add 20 μl medium solution of tested compounds prepared at step 5 to each well. For control group cell, add 20 μl culture medium containing 0.5% pure DMSO. […] Each 96-well plate, we can test 3 compounds with a control cell group. • 7. Put the culture plates back to incubator, culture for 72 hours at 37° C., 5% CO2. • 8. 72 hours later, remove cultures from incubator into sterile work area. • 9. Prepare fixative (50% Trichloroacetic Acid-TCA) by adding reagent grade water to the TCA, fix the cells by gently layering 50 μl of cold TCA solution on top of the growth medium. • 10. Incubate plates for 1 hour at 4° C. and then rinse with water several times to remove TCA, serum proteins, etc. Plates are air dried and stored until use. Bland background optical density is measured in wells incubated with growth medium without cells. • 11. Use 10% acetic acid solution to prepare 0.4% Sulforhodamine B solution. Add 50 μl sulforhodamine B solution to each well of 96-well plates. • 12. Allow cells to stain for 30 minutes. • 13. Prepared the wash solution of […] acetic acid. At the end of the staining period, the stain is removed and the cells rinsed quickly with 1% acetic acid. Repeat until unincorporated dye is removed. Keep wash times to a minimum to reduce desorption of protein-bound dye. After being rinsed, the cultures are air dried until no moisture is visible. • 14. The incorporated dye is then solubilized in a volume of Sulforhodamine B assay Solubilization solution (10 mM Tris) equal to the original volume of culture medium. Allow cultures to stand for 5 minutes at room temperature.

A431 cell = experiment: Cell Proliferation Inhibition EGFR Assay (SRB method); assay type: cell-based, homo sapient; details: Homo sapiens, A-431; A431 cells, 72 hours exposure, Sulforhodamine B; read-out: IC50 (A431)
Source text: The following in vitro assay may be used to determine the level of activity and effect of different compounds of the present invention on the proliferation inhibition (cell toxic) of […] growth factor receptor (EGFR) high expressing homo […] cancer cell-A431 cell. The cellular assay described here measure the compounds of their anti-angiogenesis and proliferation inhibition activity and effect through EGFR on the cancer cells in vitro. The effect and activity is represented by the IC50 value that kills the cancer cell. […] The homo […] highly express EGFR are chosen and seeded to 96-well cell culture plate at a suitable concentration (exp 5000 cells/ml medium). The cells then are cultured in carbon dioxide (CO2) incubator till when they confluence to about 85%. Then, the cell culture medium is replaced by fresh one with tested compounds added in it at serial concentrations (general 6 to 7 concentrations). Then the cells are put back to the culture and cultured for continuous 72 hours. 72 hours later, the cell exposed to compounds and control cell are assayed for their proliferation using Sulforhodamine B (SRB) method. Compounds IC50 on tested cells are calculated by the data of inhibition rates of serial concentrations of the tested compounds. • a. Dimethyl sulfoxide (Sinophma chemical reagent company, catalog No. T20050806) • b. A431 cells (Purchased from Institute of biochemistry and cell biology) • c. Falcon 100 mm cell culture plates (Baton Dickison Labware, Baton Dickison and company, • Catalog No. 18677) • d. coming 96-well culture cluster (Corning Incorporated, Catalog No. 3599) • e. Fisher Pipette (Fisher scientific, Catalog No. 03-692-164) • f. DMEM/F12 cell medium (Gibco, Catalog No. 12400-024) • g. Fetal bovine serum, origin from Australia (Gibco, Catalog No. 10099-141) • h. […] Sulforhodamine B (Sigma, Catalog No. 3520-42-1) • k. Acetic Acid (Sinophma chemical reagent company, Catalog No. T20060508) • l. Trichloroacetic Acid (Sinophma chemical reagent company, Catalog No. T20060305) • m. Tris base (Amresco, Catalog No. 0826) • n. Class II A/B3 Biological safety cabinet (ThermoForma Catalog No. HB0053 03) • o. Series II water jacketed CO2 incubator (ThermoForma Model: 3111) • p. Centrifuge (Fisher Scientific Marathon 8 k, Catalog No. 0027-02) • q. Novastar Plate reader (BMG Labtech, Catalog No. 700 0081) • r. Orbital Shaker (Qilinbeier, Catalog No. TS-1) Protocol: […] Growing seeded 96-well plates at 37° C., 5% CO2, till 85% confluence. • 4. Prepare compounds stock solution, using DMSO solve candidate compounds to a concentration of 20 mM. […] Use cell culture medium (in this case, DMEM/F12+10% FBS) to dilute the compounds solution prepared above. Each DMSO serial concentration compound solution is diluted by 20 times with culture medium by adding 5 μl DMSO compound solution to 95 μl culture medium, then mix well by vortex. This promise that the DMSO concentration at that the A431 cell will exposed to will not surpass 0.5%. • 6. […] Each well added 180 μl medium, then add 20 μl medium solution of tested compounds prepared at step 5 to each well. For control group cell, add 20 μl culture medium containing 0.5% pure DMSO. […] Each 96-well plate, we can test 3 compounds with a control cell group. • 7. Put the culture plates back to incubator, culture for 72 hours at 37° C., 5% CO2. • 8. 72 hours later, remove cultures from incubator into sterile work area. • 9. Prepare fixative (50% Trichloroacetic Acid-TCA) by adding reagent grade water to the TCA, fix the cells by gently layering […] of cold TCA solution on top of the growth medium. • 10. Incubate plates for 1 hour at 4° C. and then rinse with water several times to remove TCA, serum proteins, etc. Plates are air dried and stored until use. Bland background optical density is measured in wells incubated with growth medium without cells. • 11. Use 10% acetic acid solution to prepare 0.4% Sulforhodamine B solution. Add 50 μl sulforhodamine B solution to each well of 96-well plates. • 12. […]

IC50 (A431 cell) [nM]	SMILES	IC50 (HUVEC cell) [nM]
–	Cc1cccc2c1/C(=C/c1[nH]c3c(c1C)C(=O)N(CCN1CCOCC1)CC3)C(=O)N2 [Example 51, 3-Methyl-2-(4-methyl-2-oxo-1,2-dihydro-indol-3-ylidenemethyl)-5-(2-morpholin-4-yl-ethyl)-1,5,6,7-tetrahydro-pyrrolo[3,2-c]pyridin-4-one]	780
840	CCN(CC)CCN1CCc2[nH]c(/C=C3\C(=O)Nc4ccc(NC=O)cc43)c(C)c2C1=O [Example 33, N-{3-[5-(2-Diethylamino-ethyl)-3-methyl-4-oxo-4,5,6,7-tetrahydro-1H-pyrrolo[3,2-c]pyridine-2-ylmethylene]-2-oxo-2,3-dihydro-1H-indol-5-yl}-formamide]	670
–	Cc1c(/C=C2\C(=O)Nc3ccc(NC=O)cc32)[nH]c2c1C(=O)N(CCN1CCOCC1)CC2 [Example 55, N-{3-[3-Methyl-5-(2-morpholin-4-yl-ethyl)-4-oxo-4,5,6,7-tetrahydro-1H-pyrrolo[3,2-c]pyridin-2-ylmethylene]-2-oxo-2,3-dihydro-1H-indol-5-yl}-formamide]	3720
–	CCN(CC)CCN1CCc2[nH]c(/C=C3\C(=O)Nc4ccc(NS(C)(=O)=O)cc43)c(C)c2C1=O [Example 10, N-{3-[5-(2-Diethylamino-ethyl)-3-methyl-4-oxo-4,5,6,7-tetrahydro-1H-pyrrolo[3,2-c]pyridine-2-ylmethylene]-2-oxo-2,3-dihydro-1H-indol-5-yl}-methanesulfonamide]	360
–	COc1ccc2c(c1)/C(=C/c1[nH]c3c(c1C)C(=O)N(CCN1CCOCC1)CC3)C(=O)N2 [Example 45, 2-(5-Methoxy-2-oxo-1,2-dihydro-indol-3-ylidenemethyl)-3-methyl-5-(2-morpholin-4-yl-ethyl)-1,5,6,7-tetrahydro-pyrrolo[3,2-c]pyridin-4-one]	1150
12600	CCN(CC)CCN1CCc2[nH]c(/C=C3\C(=O)Nc4c(N)cc(F)cc43)c(C)c2C1=O [Example 4]	3600
–	Cc1c(/C=C2\C(=O)Nc3cccc(-c4cccc(F)c4F)c32)[nH]c2c1C(=O)N(CCN1CCOCC1)CC2 [Example 44, 2-[4-(2,3-Difluoro-phenyl)-2-oxo-1,2-dihydro-indol-3-ylidenemethyl]-3-methyl-5-(2-morpholin-4-yl-ethyl)-1,5,6,7-tetrahydro-pyrrolo[3,2-c]pyridin-4-one]	1320
–	CCN(CC)CCN1CCc2[nH]c(/C=C3\C(=O)Nc4ccc(NC(C)=O)cc43)c(C)c2C1=O [Example 11, N-{3-[5-(2-Diethylamino-ethyl)-3-methyl-4-oxo-4,5,6,7-tetrahydro-1H-pyrrolo[3,2-c]pyridine-2-ylmethylene]-2-oxo-2,3-dihydro-1H-indol-5-yl}-acetamide]	170
–	O=C1Nc2ccc(Cl)cc2/C1=C/c1[nH]c2c(c1-c1ccc(F)cc1)C(=O)NCC2 [Example 58, 2-(5-Chloro-2-oxo-1,2-dihydro-indol-3-ylidenemethyl)-3-(4-fluoro-phenyl)-1,5,6,7-tetrahydro-pyrrolo[3,2-c]pyridin-4-one]	3990
–	Cc1c(/C=C2\C(=O)Nc3c(N)cc(F)cc32)[nH]c2c1C(=O)N(CCN1CCOCC1)CC2 [Example 21, 2-(7-Amino-5-fluoro-2-oxo-1,2-dihydro-indol-3-ylidenemethyl)-3-methyl-5-(2-morpholin-4-yl-ethyl)-1,5,6,7-tetrahydro-pyrrolo[3,2-c]pyridin-4-one]	2100
–	Cc1c(/C=C2\C(=O)Nc3ccc(Br)cc32)[nH]c2c1C(=O)N(CCN1CCOCC1)CC2 [Example 17, 2-(5-Bromo-2-oxo-1,2-dihydro-indol-3-ylidenemethyl)-3-methyl-5-(2-mopholin-4-yl-ethyl)-1,5,6,7-tetrahydro-pyrrolo[3,2-c]pyridin-4-one]	2260
–	Cc1c(/C=C2\C(=O)Nc3cc(N)c(F)cc32)[nH]c2c1C(=O)N(CCN1CCOCC1)CC2 [Example 20, 2-(6-Amino-5-fluoro-2-oxo-1,2-dihydro-indol-3-ylidenemethyl)-3-methyl-5-(2-morpholin-4-yl-ethyl)-1,5,6,7-tetrahydro-pyrrolo[3,2-c]pyridin-4-one]	15300
–	O=C1Nc2ccc(F)cc2/C1=C/c1[nH]c2c(c1-c1ccc(F)cc1)C(=O)NCC2 [Example 46, 2-(5-Fluoro-2-oxo-1,2-dihydro-indol-3-ylidenemethyl)-3-(4-fluoro-phenyl)-1,5,6,7-tetrahydro-pyrrolo[3,2-c]pyridin-4-one]	10500
–	CC(=O)Nc1cc2c(cc1F)/C(=C/c1[nH]c3c(c1C)C(=O)N(CCN1CCOCC1)CC3)C(=O)N2 [Example 19, N-{5-Fluoro-3-[3-methyl-5-(2-morpholin-4-yl-ethyl)-4-oxo-4,5,6,7-tetrahydro-1H-pyrrolo[3,2-c]pyridine-2-ylmethylene]-2-oxo-2,3-dihydro-1H-indol-6-yl}-acetamide]	2560
